Reference: PubChem BioAssay (NCI)
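GI50 = concentration required for 50% inhibition of growth. TGI is the concentration that stops growth completely.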

Experiments:
Test in all cases: NCI anticancer screen, dose series, 384-well format
K-562 leukemia = tested on: K-562 leukemia
HCT-116 colon = tested on: HCT-116 colon
SNB-19 CNS = tested on: SNB-19 CNS
T-47D breast = tested on: T-47D breast
SR leukemia = tested on: SR leukemia
MOLT-4 leukemia = tested on: MOLT-4 leukemia
SK-MEL-28 melanoma = tested on: SK-MEL-28 melanoma
KM12 colon = tested on: KM12 colon
M14 melanoma = tested on: M14 melanoma
MDA-MB-468 breast = tested on: MDA-MB-468 breast
DU-145 prostate = tested on: DU-145 prostate
CCRF-CEM leukemia = tested on: CCRF-CEM leukemia
NCI-H460 NSCLC = tested on: NCI-H460 NSCLC
HCT-15 colon = tested on: HCT-15 colon
HOP-92 NSCLC = tested on: HOP-92 NSCLC
UO-31 renal = tested on: UO-31 renal
786-0 renal = tested on: 786-0 renal
COLO 205 colon = tested on: COLO 205 colon
MDA-MB-231 breast = tested on: MDA-MB-231 breast
BT-549 breast = tested on: BT-549 breast
RPMI-8226 leukemia = tested on: RPMI-8226 leukemia
SF-539 CNS = tested on: SF-539 CNS
NCI/ADR-RES ovarian = tested on: NCI/ADR-RES ovarian
IGROV1 ovarian = tested on: IGROV1 ovarian
ACHN renal = tested on: ACHN renal
HCC-2998 colon = tested on: HCC-2998 colon
NCI-H522 lung = tested on: NCI-H522 lung
OVCAR-8 ovarian = tested on: OVCAR-8 ovarian
CAKI-1 renal = tested on: CAKI-1 renal
SNB-75 CNS = tested on: SNB-75 CNS
OVCAR-4 ovarian = tested on: OVCAR-4 ovarian
SF-268 CNS = tested on: SF-268 CNS
OVCAR-5 ovarian = tested on: OVCAR-5 ovarian
HT29 colon = tested on: HT29 colon
OVCAR-3 ovarian = tested on: OVCAR-3 ovarian
NCI-H226 lung = tested on: NCI-H226 lung
UACC-257 melanoma = tested on: UACC-257 melanoma
SF-295 CNS = tested on: SF-295 CNS
MALME-3M melanoma = tested on: MALME-3M melanoma
HOP-62 NSCLC = tested on: HOP-62 NSCLC
SK-OV-3 ovarian = tested on: SK-OV-3 ovarian
U251 glioblastoma = tested on: U251 glioblastoma
HS 578T breast = tested on: HS 578T breast
TK-10 renal = tested on: TK-10 renal
NCI-H322M lung = tested on: NCI-H322M lung
MCF7 breast = tested on: MCF7 breast
A498 renal = tested on: A498 renal
MDA-MB-435 melanoma = tested on: MDA-MB-435 melanoma
LOX IMVI melanoma = tested on: LOX IMVI melanoma
EKVX NSCLC = tested on: EKVX NSCLC
SK-MEL-5 melanoma = tested on: SK-MEL-5 melanoma
SW-620 colon = tested on: SW-620 colon
NCI-H23 lung = tested on: NCI-H23 lung
SN12C renal = tested on: SN12C renal
RXF 393 renal = tested on: RXF 393 renal
A549 NSCLC = tested on: A549 NSCLC
PC-3 prostate = tested on: PC-3 prostate

COc1cccc2c1ccc1nc3cccc(C(=O)N[C@H](C)CN(C)C)c3nc12
GI50 (K-562 leukemia): 45.4 nM
TGI (K-562 leukemia): 156 nM
GI50 (HCT-116 colon): 35.3 nM
TGI (HCT-116 colon): 1080 nM
GI50 (SNB-19 CNS): 75.2 nM
TGI (SNB-19 CNS): 1050 nM
GI50 (T-47D breast): 117 nM
TGI (T-47D breast): 315 nM
TGI (SR leukemia): 20.4 nM
GI50 (MOLT-4 leukemia): 15.5 nM
TGI (MOLT-4 leukemia): 29.1 nM
GI50 (SK-MEL-28 melanoma): 123 nM
TGI (SK-MEL-28 melanoma): 291 nM
GI50 (KM12 colon): 84.7 nM
TGI (KM12 colon): 881 nM
GI50 (M14 melanoma): 101 nM
TGI (M14 melanoma): 225 nM
GI50 (MDA-MB-468 breast): 23.8 nM
TGI (MDA-MB-468 breast): 63.9 nM
GI50 (DU-145 prostate): 69.2 nM
TGI (DU-145 prostate): 524 nM
GI50 (CCRF-CEM leukemia): 42.3 nM
TGI (CCRF-CEM leukemia): 160 nM
GI50 (NCI-H460 NSCLC): 34.4 nM
TGI (NCI-H460 NSCLC): 112 nM
GI50 (HCT-15 colon): 41.3 nM
TGI (HCT-15 colon): 187 nM
GI50 (HOP-92 NSCLC): 92 nM
TGI (HOP-92 NSCLC): 1620 nM
GI50 (UO-31 renal): 56.1 nM
TGI (UO-31 renal): 398 nM
GI50 ([…]-0 renal): 57.5 nM
TGI (786-0 renal): 861 nM
GI50 (COLO 205 colon): 12.8 nM
TGI (COLO 205 colon): 99.9 nM
GI50 (MDA-MB-231 breast): 110 nM
TGI (MDA-MB-231 breast): 393 nM
GI50 (BT-549 breast): 125 nM
TGI (BT-549 breast): 268 nM
GI50 (RPMI-8226 leukemia): 27.1 nM
TGI (RPMI-8226 leukemia): 74.6 nM
GI50 (SF-539 CNS): 52.8 nM
TGI (SF-539 CNS): 174 nM
GI50 (NCI/ADR-RES ovarian): 55.2 nM
TGI (NCI/ADR-RES ovarian): 215 nM
GI50 (IGROV1 ovarian): 61.9 nM
TGI (IGROV1 ovarian): 609 nM
GI50 (ACHN renal): 28.3 nM
TGI (ACHN renal): 243 nM
GI50 (HCC-2998 colon): 41.4 nM
TGI (HCC-2998 colon): 162 nM
GI50 (NCI-H522 lung): 102 nM
TGI (NCI-H522 lung): 278 nM
GI50 (OVCAR-8 ovarian): 96.8 nM
TGI (OVCAR-8 ovarian): 273 nM
GI50 (CAKI-1 renal): 37.3 nM
TGI (CAKI-1 renal): 2720 nM
GI50 (SNB-75 CNS): 111 nM
TGI (SNB-75 CNS): 238 nM
GI50 (OVCAR-4 ovarian): 130 nM
TGI (OVCAR-4 ovarian): 388 nM
GI50 (SF-268 CNS): 63.5 nM
TGI (SF-268 CNS): 228 nM
GI50 (OVCAR-5 ovarian): 127 nM
TGI (OVCAR-5 ovarian): 12200 nM
GI50 (HT29 colon): 103 nM
TGI (HT29 colon): 11800 nM
GI50 (OVCAR-3 ovarian): 72.9 nM
TGI (OVCAR-3 ovarian): 292 nM
GI50 (NCI-H226 lung): 73.4 nM
TGI (NCI-H226 lung): 340 nM
GI50 (UACC-257 melanoma): 104 nM
TGI (UACC-257 melanoma): 230 nM
GI50 (SF-295 CNS): 37.6 nM
TGI (SF-295 CNS): 221 nM
GI50 (MALME-3M melanoma): 28.3 nM
TGI (MALME-3M melanoma): 68 nM
GI50 (HOP-62 NSCLC): 56 nM
TGI (HOP-62 NSCLC): 231 nM
GI50 (SK-OV-3 ovarian): 85 nM
TGI (SK-OV-3 ovarian): 430 nM
GI50 (U251 glioblastoma): 57.8 nM
TGI (U251 glioblastoma): 311 nM
GI50 (HS 578T breast): 141 nM
TGI (HS 578T breast): 289 nM
GI50 (TK-10 renal): 90.5 nM
TGI (TK-10 renal): 554 nM
GI50 (NCI-H322M lung): 115 nM
TGI (NCI-H322M lung): 361 nM
GI50 (MCF7 breast): 46.7 nM
TGI (MCF7 breast): 1100 nM
GI50 (A498 renal): 51.1 nM
TGI (A498 renal): 384 nM
GI50 (MDA-MB-435 melanoma): 106 nM
TGI (MDA-MB-435 melanoma): 229 nM
GI50 (LOX IMVI melanoma): 45.9 nM
TGI (LOX IMVI melanoma): 155 nM
GI50 (EKVX NSCLC): 156 nM
TGI (EKVX NSCLC): 380 nM
GI50 (SK-MEL-5 melanoma): 35.3 nM
TGI (SK-MEL-5 melanoma): 90.4 nM
GI50 (SW-620 colon): 29.9 nM
TGI (SW-620 colon): 290 nM
GI50 (NCI-H23 lung): 91.5 nM
TGI (NCI-H23 lung): 216 nM
GI50 (SN12C renal): 77.4 nM
TGI (SN12C renal): 249 nM
GI50 (RXF 393 renal): 111 nM
TGI (RXF 393 renal): 242 nM
GI50 (A549 NSCLC): 42.9 nM
TGI (A549 NSCLC): 904 nM
GI50 (PC-3 prostate): 142 nM
TGI (PC-3 prostate): 603 nM
